In PubChem BioAssay (NCI):
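1) Cells in 96-well plates. 2) Compound, 48 h, 5 concentrations. 3) Linear interpolation between surrounding doses. 4) Unreached endpoint = highest concentration. Here, GI50 denotes the concentration required for 50% inhibition of growth. TGI denotes the concentration required for complete inhibition of growth.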

Legend:
Experiment in all cases: inhibition of tumour cell growth, NCI panel, 48 h
HL-60(TB) leukemia = test system: HL-60(TB) leukemia
RXF 393 renal = test system: RXF 393 renal
SK-MEL-2 melanoma = test system: SK-MEL-2 melanoma
DU-145 prostate = test system: DU-145 prostate
786-0 renal = test system: 786-0 renal
MDA-MB-231 breast = test system: MDA-MB-231 breast
SF-268 CNS = test system: SF-268 CNS
K-562 leukemia = test system: K-562 leukemia
NCI-H522 lung = test system: NCI-H522 lung
CCRF-CEM leukemia = test system: CCRF-CEM leukemia
HT29 colon = test system: HT29 colon
NCI-H23 lung = test system: NCI-H23 lung
SF-295 CNS = test system: SF-295 CNS
OVCAR-5 ovarian = test system: OVCAR-5 ovarian
SNB-75 CNS = test system: SNB-75 CNS
SK-MEL-28 melanoma = test system: SK-MEL-28 melanoma
LOX IMVI melanoma = test system: LOX IMVI melanoma
MDA-MB-435 = test system: MDA-MB-435
T-47D breast = test system: T-47D breast
SN12C renal = test system: SN12C renal
HOP-92 NSCLC = test system: HOP-92 NSCLC
ACHN renal = test system: ACHN renal
UACC-257 melanoma = test system: UACC-257 melanoma
IGROV1 ovarian = test system: IGROV1 ovarian
EKVX NSCLC = test system: EKVX NSCLC
SK-MEL-5 melanoma = test system: SK-MEL-5 melanoma
SW-620 colon = test system: SW-620 colon
HCT-116 colon = test system: HCT-116 colon
SNB-19 CNS = test system: SNB-19 CNS
UO-31 renal = test system: UO-31 renal
SF-539 CNS = test system: SF-539 CNS
NCI-H460 lung = test system: NCI-H460 lung
OVCAR-8 ovarian = test system: OVCAR-8 ovarian
KM12 colon = test system: KM12 colon
COLO 205 colon = test system: COLO 205 colon
OVCAR-3 ovarian = test system: OVCAR-3 ovarian
SR leukemia = test system: SR leukemia
TK-10 renal = test system: TK-10 renal
NCI-H226 lung = test system: NCI-H226 lung
HS 578T breast = test system: HS 578T breast
CAKI-1 renal = test system: CAKI-1 renal
RPMI-8226 leukemia = test system: RPMI-8226 leukemia
A498 renal = test system: A498 renal
HCC-2998 colon = test system: HCC-2998 colon
A549 NSCLC = test system: A549 NSCLC
BT-549 breast = test system: BT-549 breast
MCF7 breast = test system: MCF7 breast
UACC-62 melanoma = test system: UACC-62 melanoma
M14 melanoma = test system: M14 melanoma
MALME-3M melanoma = test system: MALME-3M melanoma
OVCAR-4 ovarian = test system: OVCAR-4 ovarian
HOP-62 NSCLC = test system: HOP-62 NSCLC
MOLT-4 leukemia = test system: MOLT-4 leukemia
PC-3 prostate = test system: PC-3 prostate
SK-OV-3 ovarian = test system: SK-OV-3 ovarian
NCI/ADR-RES ovarian = test system: NCI/ADR-RES ovarian
HCT-15 colon = test system: HCT-15 colon

For `O=C(CN1CCN(c2ncnc3ccccc23)CC1)Nc1ccc(Cl)cc1C(=O)c1ccccc1Cl`, the GI50 (HL-60(TB) leukemia) was 415 nM, the GI50 (RXF 393 renal) was 610 nM and the TGI (RXF 393 renal) was 1310 nM. It also gave a GI50 (SK-MEL-2 melanoma) of 723 nM, a TGI (SK-MEL-2 melanoma) of 2670 nM and a GI50 (DU-145 prostate) of 368 nM. The TGI (DU-145 prostate) was 12 µM, the GI50 (786-0 renal) was 356 nM and the TGI (786-0 renal) was 12.3 µM. For the same molecule, the GI50 (MDA-MB-231 breast) was 387 nM, the TGI (MDA-MB-231 breast) was 3.62 µM and the GI50 (SF-268 CNS) was 686 nM. It also gave a TGI (SF-268 CNS) of 13 µM, a GI50 (K-562 leukemia) of 838 nM and a TGI (K-562 leukemia) greater than 52.4 µM. It also gave a GI50 (NCI-H522 lung) of 258 nM, a TGI (NCI-H522 lung) of 1550 nM and a GI50 (CCRF-CEM leukemia) of 791 nM. For the same molecule, the TGI (CCRF-CEM leukemia) was greater than 43.8 µM, the GI50 (HT29 colon) was 394 nM and the TGI (HT29 colon) was 9.4 µM. It also gave a GI50 (NCI-H23 lung) of 1180 nM, a TGI (NCI-H23 lung) of 3.87 µM and a GI50 (SF-295 CNS) of 1110 nM. It also gave a TGI (SF-295 CNS) of 6.07 µM, a GI50 (OVCAR-5 ovarian) of 2920 nM and a TGI (OVCAR-5 ovarian) greater than 42.2 µM. For the same molecule, the GI50 (SNB-75 CNS) was 434 nM, the TGI (SNB-75 CNS) was 1480 nM and the GI50 (SK-MEL-28 melanoma) was 1030 nM. For the same molecule, the TGI (SK-MEL-28 melanoma) was 3.36 µM, the GI50 (LOX IMVI melanoma) was 207 nM and the TGI (LOX IMVI melanoma) was 471 nM. The GI50 (MDA-MB-435) was 589 nM, the TGI (MDA-MB-435) was 2000 nM and the GI50 (T-47D breast) was 339 nM. The TGI (T-47D breast) was 3.25 µM, the GI50 (SN12C renal) was 943 nM and the GI50 (HOP-92 NSCLC) was 542 nM. For the same molecule, the TGI (HOP-92 NSCLC) was 15.4 µM, the GI50 (ACHN renal) was 1670 nM and the TGI (ACHN renal) was 18.7 µM. For the same molecule, the GI50 (UACC-257 melanoma) was 2040 nM, the TGI (UACC-257 melanoma) was 6.69 µM and the GI50 (IGROV1 ovarian) was 1700 nM. It also gave a TGI (IGROV1 ovarian) of 14.4 µM, a GI50 (EKVX NSCLC) of 2740 nM and a TGI (EKVX NSCLC) of 7.27 µM. It also gave a GI50 (SK-MEL-5 melanoma) of 500 nM, a TGI (SK-MEL-5 melanoma) of 2700 nM and a GI50 (SW-620 colon) of 662 nM. The TGI (SW-620 colon) was 7.54 µM, the GI50 (HCT-116 colon) was 417 nM and the TGI (HCT-116 colon) was 11 µM. It also gave a GI50 (SNB-19 CNS) of 1710 nM, a TGI (SNB-19 CNS) of 12.2 µM and a GI50 (UO-31 renal) of 1870 nM. For the same molecule, the TGI (UO-31 renal) was 12.6 µM, the GI50 (SF-539 CNS) was 383 nM and the TGI (SF-539 CNS) was 1300 nM. It also gave a GI50 (NCI-H460 lung) of 598 nM, a TGI (NCI-H460 lung) of 11.6 µM and a GI50 (OVCAR-8 ovarian) of 1280 nM. It also gave a TGI (OVCAR-8 ovarian) greater than 30.9 µM, a TGI (KM12 colon) of 5.08 µM and a GI50 (COLO 205 colon) of 349 nM. The TGI (COLO 205 colon) was 1330 nM, the GI50 (OVCAR-3 ovarian) was 273 nM and the TGI (OVCAR-3 ovarian) was 824 nM. It also gave a GI50 (SR leukemia) of 263 nM, a GI50 (TK-10 renal) of 501 nM and a TGI (TK-10 renal) of 4.44 µM. For the same molecule, the GI50 (NCI-H226 lung) was 1150 nM, the TGI (NCI-H226 lung) was 6.26 µM and the GI50 (HS 578T breast) was 478 nM. The TGI (HS 578T breast) was 3.7 µM, the GI50 (CAKI-1 renal) was 1460 nM and the TGI (CAKI-1 renal) was 7.01 µM. It also gave a GI50 (RPMI-8226 leukemia) of 561 nM, a TGI (RPMI-8226 leukemia) greater than 22.2 µM and a GI50 (A498 renal) of 1500 nM. The TGI (A498 renal) was 3.69 µM, the GI50 (HCC-2998 colon) was 1790 nM and the TGI (HCC-2998 colon) was 4.96 µM. The GI50 (A549 NSCLC) was 2660 nM, the TGI (A549 NSCLC) was greater than 100 µM and the GI50 (BT-549 breast) was 239 nM. The TGI (BT-549 breast) was 618 nM, the GI50 (MCF7 breast) was 636 nM and the TGI (MCF7 breast) was 13.1 µM. It also gave a GI50 (UACC-62 melanoma) of 579 nM, a TGI (UACC-62 melanoma) of 1500 nM and a GI50 (M14 melanoma) of 919 nM. It also gave a TGI (M14 melanoma) of 2880 nM, a GI50 (MALME-3M melanoma) of 289 nM and a TGI (MALME-3M melanoma) of 2520 nM. It also gave a GI50 (OVCAR-4 ovarian) of 1320 nM, a TGI (OVCAR-4 ovarian) of 9.36 µM and a GI50 (HOP-62 NSCLC) of 626 nM. The TGI (HOP-62 NSCLC) was 6.07 µM, the GI50 (MOLT-4 leukemia) was 472 nM and the GI50 (PC-3 prostate) was 818 nM. It also gave a TGI (PC-3 prostate) greater than 56.3 µM, a GI50 (SK-OV-3 ovarian) of 3.5 µM and a TGI (SK-OV-3 ovarian) of 36.6 µM. The GI50 (NCI/ADR-RES ovarian) was 3.12 µM, the TGI (NCI/ADR-RES ovarian) was 16.3 µM and the GI50 (HCT-15 colon) was 3.12 µM. For the same molecule, the TGI (HCT-15 colon) was 10.8 µM.
